Experimental data published in patent US20120214862A1, “MODULATION OF FACTOR 7 EXPRESSION” (ISIS Pharmaceuticals, Inc., priority 2009, published 2012).
In the oligonucleotide strings, read from the 5' end, every base follows the letter of its sugar. An asterisk marks phosphorothioate; unmarked linkages are phosphodiester. Other units and linkages are bracketed, terminal groups are in braces. A string of capitals states the bases alone. e = 2'-O-(2-methoxyethyl) (MOE); [5mC] = 5-methylcytosine; d = 2'-deoxy (DNA)

System: human Factor 7 mRNA
Assay: Inhibition of human Factor 7 mRNA by 2-10-2 MOE shortmers in HepB3 cells, electroporation, 1,000 nM
Type: cell-based
Details: electroporation, 1,000 nM oligonucleotide, approximately 24 hours, relative to untreated control cells
Procedure, shortened: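 14-mer 2-10-2 2′-MOE gapmers, full phosphorothioate, 5-methylcytidines, electroporated at 1,000 nM into HepB3 cells (20,000/well). After ~24 h, mRNA quantified by real-time RT-PCR, normalized to RIBOGREEN total RNA; percent inhibition relative to untreated cells.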

Substance | % inhibition of human Factor 7 mRNA [%]
435733 (antisense e[5mC]*eT*dG*dA*dA*dT*dT*dG*dT*d[5mC]*dT*dG*eA*eA) [compound 435733] | 5
435734 (antisense eA*eT*dG*d[5mC]*dT*dT*d[5mC]*dT*dG*dA*dA*dT*eT*eG) [compound 435734] | 16
435735 (antisense eT*eG*dG*dT*dG*dA*dT*dG*d[5mC]*dT*dT*d[5mC]*eT*eG) [compound 435735] | 81
435736 (antisense eA*eT*dG*d[5mC]*dA*dT*dG*dG*dT*dG*dA*dT*eG*e[5mC]) [compound 435736] | 50
435737 (antisense eG*eT*dG*d[5mC]*dA*dG*d[5mC]*d[5mC]*d[5mC]*dG*dG*d[5mC]*eA*e[5mC]) [compound 435737] | 70
435738 (antisense e[5mC]*eA*dG*dA*dG*dG*dA*dT*dG*dA*dG*d[5mC]*eA*e[5mC]) [compound 435738] | 16
435739 (antisense e[5mC]*eA*dT*d[5mC]*dT*d[5mC]*dA*dG*dA*dG*dG*dA*eT*eG) [compound 435739] | 5
435740 (antisense eT*e[5mC]*dA*dT*dT*dT*d[5mC]*dA*dG*dT*dG*dA*eT*eG) [compound 435740] | 0
435741 (antisense eA*eG*dG*dG*dT*dT*d[5mC]*dA*dT*dT*dT*d[5mC]*eA*eG) [compound 435741] | 6
435742 (antisense eA*eT*dG*dT*dG*dA*dG*dG*dG*dT*dT*d[5mC]*eA*eT) [compound 435742] | 11
435743 (antisense eG*e[5mC]*d[5mC]*dT*d[5mC]*dA*dA*dA*d[5mC]*dA*dT*d[5mC]*eT*eA) [compound 435743] | 40
435744 (antisense e[5mC]*eT*dA*d[5mC]*dA*dG*d[5mC]*d[5mC]*dT*d[5mC]*dA*dA*eA*e[5mC]) [compound 435744] | 19
435745 (antisense eG*eG*dG*dA*dG*d[5mC]*dT*dA*d[5mC]*dA*dG*d[5mC]*e[5mC]*eT) [compound 435745] | 0
435746 (antisense eA*eT*dT*dG*dA*d[5mC]*dA*dA*dG*dG*dG*d[5mC]*eT*eG) [compound 435746] | 32
435747 (antisense eA*eT*dA*dT*d[5mC]*dA*dT*dT*dG*dA*d[5mC]*dA*eA*eG) [compound 435747] | 0
435748 (antisense eT*e[5mC]*d[5mC]*d[5mC]*dA*dG*dG*dG*dT*d[5mC]*dT*d[5mC]*eT*eG) [compound 435748] | 18
435749 (antisense e[5mC]*eA*dG*d[5mC]*d[5mC]*dA*dG*dG*dG*d[5mC]*d[5mC]*dT*eG*eG) [compound 435749] | 29
435750 (antisense e[5mC]*eA*d[5mC]*dT*dG*d[5mC]*dA*dG*d[5mC]*d[5mC]*dA*dG*eG*eG) [compound 435750] | 14
435751 (antisense e[5mC]*eT*dT*dG*d[5mC]*d[5mC]*dA*dG*dG*dT*d[5mC]*d[5mC]*eT*e[5mC]) [compound 435751] | 28

Substance | % inhibition of human Factor 7 mRNA [%]
435752 (antisense eT*eG*d[5mC]*dA*dG*d[5mC]*dT*dT*dG*d[5mC]*d[5mC]*dA*eG*eG) [compound 435752] | 12
435753 (antisense eA*eA*dG*dA*dG*dT*dG*d[5mC]*dA*dG*d[5mC]*dT*eT*eG) [compound 435753] | 9
435754 (antisense eT*e[5mC]*dA*dG*d[5mC]*dA*dA*dG*dA*dG*dT*dG*e[5mC]*eA) [compound 435754] | 16
435755 (antisense eG*eG*dG*dA*d[5mC]*dT*d[5mC]*dA*dG*d[5mC]*dA*dA*eG*eA) [compound 435755] | 0
435756 (antisense eT*eG*d[5mC]*d[5mC]*d[5mC]*dA*dG*dG*dA*d[5mC]*dG*dG*e[5mC]*e[5mC]) [compound 435756] | 20
435757 (antisense eT*eG*d[5mC]*d[5mC]*dT*dG*dA*dG*dT*dG*d[5mC]*d[5mC]*e[5mC]*e[5mC]) [compound 435757] | 51
435758 (antisense e[5mC]*e[5mC]*d[5mC]*dT*dG*dA*dG*d[5mC]*dT*dG*dG*dG*e[5mC]*eA) [compound 435758] | 4
435759 (antisense eG*eA*dG*d[5mC]*d[5mC]*dA*d[5mC]*dA*dG*dA*dG*d[5mC]*e[5mC]*eT) [compound 435759] | 11
435760 (antisense eT*e[5mC]*dT*dT*dG*dG*dG*dT*dG*dT*dG*dG*eA*eT) [compound 435760] | 17
435761 (antisense e[5mC]*eA*dG*dA*dT*dG*dA*dA*dA*dA*d[5mC]*dT*eT*eG) [compound 435761] | 5
435762 (antisense e[5mC]*eA*dG*dG*dT*dG*dT*dT*dA*dA*dG*dG*eT*eG) [compound 435762] | 0
435763 (antisense eA*eG*dG*dA*dG*dA*dA*dA*dG*dG*dT*d[5mC]*eA*eG) [compound 435763] | 2
435764 (antisense eT*eG*dA*dG*dA*dG*d[5mC]*dT*dG*d[5mC]*dA*d[5mC]*e[5mC]*eT) [compound 435764] | 8
435765 (antisense e[5mC]*eA*dA*dA*dG*dT*dT*d[5mC]*dT*d[5mC]*dT*dG*e[5mC]*e[5mC]) [compound 435765] | 1
435766 (antisense eG*e[5mC]*dA*d[5mC]*d[5mC]*dT*dG*d[5mC]*dA*dG*d[5mC]*d[5mC]*eA*eG) [compound 435766] | 51
435767 (antisense e[5mC]*eA*d[5mC]*d[5mC]*dA*dA*dG*dT*dT*dT*dA*dT*eG*eG) [compound 435767] | 0
435768 (antisense eG*e[5mC]*d[5mC]*dT*dG*dG*dA*dT*dG*d[5mC]*dT*dG*eG*eT) [compound 435768] | 75
435769 (antisense eT*eT*d[5mC]*dT*dT*dT*dG*dA*dA*dA*dA*dA*eT*eA) [compound 435769] | 0
435770 (antisense e[5mC]*eT*d[5mC]*dT*dG*dA*dG*dA*dG*dG*d[5mC]*d[5mC]*e[5mC]*e[5mC]) [compound 435770] | 81

Substance | % inhibition of human Factor 7 mRNA [%]
435771 (antisense eG*eT*d[5mC]*dA*dT*dA*dA*dG*dG*d[5mC]*d[5mC]*dA*eT*eG) [compound 435771] | 13
435772 (antisense eG*e[5mC]*dA*dG*dT*d[5mC]*d[5mC]*d[5mC]*dT*dG*d[5mC]*dT*e[5mC]*eA) [compound 435772] | 42
435773 (antisense e[5mC]*eA*dG*dG*dG*dA*dA*d[5mC]*dA*d[5mC]*d[5mC]*d[5mC]*eT*e[5mC]) [compound 435773] | 57
435774 (antisense eG*eT*d[5mC]*d[5mC]*d[5mC]*dA*dG*dG*dG*dA*dA*dG*eG*e[5mC]) [compound 435774] | 17
435775 (antisense eT*e[5mC]*dT*dG*dG*dA*dA*dG*dG*dA*dA*d[5mC]*eA*eG) [compound 435775] | 25
435776 (antisense eG*eG*dG*dA*d[5mC]*dA*d[5mC]*dT*d[5mC]*dA*d[5mC]*dA*e[5mC]*eT) [compound 435776] | 51
435777 (antisense e[5mC]*eT*dG*dA*dG*dG*dA*dT*dG*d[5mC]*dA*dG*eG*e[5mC]) [compound 435777] | 53
435778 (antisense eG*e[5mC]*dT*dA*d[5mC]*dT*dG*dG*dG*d[5mC]*d[5mC]*dA*e[5mC]*eG) [compound 435778] | 49
435779 (antisense eT*eG*dA*dG*d[5mC]*dG*d[5mC]*dG*dG*dA*dA*dG*eA*eA) [compound 435779] | 50
435780 (antisense eG*eG*dA*dG*dG*dG*dA*d[5mC]*dG*dA*d[5mC]*d[5mC]*eT*eT) [compound 435780] | 28
435781 (antisense eA*e[5mC]*d[5mC]*dA*d[5mC]*dG*d[5mC]*dG*dG*dT*dG*dG*eT*eG) [compound 435781] | 0
435782 (antisense e[5mC]*eG*dT*dG*d[5mC]*dG*d[5mC]*dT*d[5mC]*dA*dG*d[5mC]*eT*e[5mC]) [compound 435782] | 36
435783 (antisense eA*eA*dA*d[5mC]*d[5mC]*dG*dG*d[5mC]*dA*dT*dG*d[5mC]*eG*e[5mC]) [compound 435783] | 49
435784 (antisense e[5mC]*e[5mC]*dT*dA*dA*dG*dT*dG*dT*dG*d[5mC]*dT*eT*eT) [compound 435784] | 17
435785 (antisense eA*eG*d[5mC]*dT*dT*d[5mC]*dT*d[5mC]*dA*d[5mC]*d[5mC]*dA*e[5mC]*eG) [compound 435785] | 46
435786 (antisense eA*eG*dG*dT*dG*dA*d[5mC]*d[5mC]*d[5mC]*dG*dT*dG*eA*eG) [compound 435786] | 68
435787 (antisense eG*eA*dG*dT*dG*dT*dG*dA*dG*dG*d[5mC]*dT*eT*e[5mC]) [compound 435787] | 34
435788 (antisense e[5mC]*e[5mC]*dT*dG*dT*dG*dA*dG*dT*dG*dT*dG*eA*eG) [compound 435788] | 20
